Patent US10149911B2, “Pharmaceutical composition containing hydroxamic acid derivative or salt thereof” (TOYAMA CHEMICAL CO., LTD., priority 2014, dated 2018)

Columns and labels:
[1] = test system: Pseudomonas aeruginosa clinical isolate (S-2838 strain); experiment: Mouse model with urinary tract infection by multidrug-resistant Pseudomonas aeruginosa; format: in vivo; details: female ICR mice, S-2838 strain via urethra, 12.5 mg/kg
Description: The mice used were female ICR SPF mice (5 weeks old: 5 individuals per group).
(§1) To prepare a bacterial inoculum solution, a Pseudomonas aeruginosa clinical isolate (S-2838 strain) was suspended in sterile saline.
Infection was induced by the inoculation of 0.2 mL of the inoculum solution (approximately 10^3 CFU/mouse) through the urethra of each mouse. […] The numbers of bacterial colonies of the next day of the infection in the kidneys were recorded, and an average thereof was calculated.

[2] = test system: Pseudomonas aeruginosa clinical isolate (S-2838 strain); experiment: Mouse model with pulmonary infection by multidrug-resistant Pseudomonas aeruginosa; format: in vivo; details: cyclophosphamide-treated male ICR mice, S-2838 strain intranasal, 25 mg/kg
Description: The mice used were male ICR SPF mice (4.5 weeks old at the time of infection: 5 individuals per group). In order to achieve a transient compromised state, cyclophosphamide was intraperitoneally administered at a dose of 200 mg/kg to each mouse 4 days before injection.
as §1
Infection was induced by the inoculation of 0.05 mL of the inoculum solution (approximately 10^5 CFU/mouse) to each mouse intranasally. […] The numbers of bacterial colonies of the next day of the infection in the lungs were recorded, and an average thereof was calculated.

[3] = test system: multidrug-resistant Pseudomonas aeruginosa clinical isolate (S-2838 strain); experiment: Defense against mouse systemic infection using multidrug-resistant Pseudomonas aeruginosa; format: in vivo; details: male ICR mice, S-2838 strain i.p., 25 mg/kg
Description: The mice used were male ICR SPF mice (4 weeks old: 5 individuals per group).
To prepare a bacterial inoculum solution, a multidrug-resistant Pseudomonas aeruginosa clinical isolate (S-2838 strain) cultured overnight at 37° C. on a Mueller-Hinton agar plate was cultured for 5 hours in a cation-adjusted Mueller-Hinton medium and then diluted 10-fold with a 10% mucin/phosphate buffer solution to prepare the inoculum solution.
Infection was induced by the intraperitoneal inoculation of 0.5 mL of the inoculum solution (approximately 10^6 CFU/mouse) to each mouse. […] Three days after the infection, the number of survivors was recorded.

[4] = Solubility test in 10% CD or CD derivative solution; format: physicochemical; details: thermodynamic from solid, room temperature
Description: To 5 mL of a 10% CD or CD derivative solution, about 100 mg of Compound A monohydrate was added, and stirred at room temperature for 24 hours. To the solutions in which αCD, HPαCD, DMβCD and methyl-β-cyclodextrin were used, about 100 mg of Compound A monohydrate was added after 6 hours. After centrifugation (3000 rpm, 10 minutes), the supernatant was filtered with a filter, and the solubility was measured by the HPLC method.

## CNC(=O)[C@@](C)(C(=O)NO)N(C)C(=O)c1ccc(C#Cc2ccc([C@H](O)CO)cc2)cc1 [Compound A, (2S)-2-((4-((4-((1S)-1,2-dihydroxyethyl)phenyl)ethynyl)benzoyl)(methyl)amino)-N-hydroxy-N′,2-dimethylmalonamide]
[1]
  decrease in the intrarenal viable cell count compared to the control group: ≥ 2 log CFU/kidney
[2]
  decrease in the intrapulmonary viable cell count compared to the control group: ≥ 2 log CFU/lung
[3]
  mice surviving 3 days after the bacterial inoculation: ≥ 60%

## CNC(=O)[C@@](C)(C(=O)NO)N(C)C(=O)c1ccc(C#Cc2ccc([C@H](O)CO)cc2)cc1 [Compound A monohydrate, (2S)-2-((4-((4-((1S)-1,2-dihydroxyethyl)phenyl)ethynyl)benzoyl)(methyl)amino)-N-hydroxy-N′,2-dimethylmalonamide]
[4]; 10% DMβCD solution, aqueous with cosolvent or surfactant or cyclodextrin, 10% DM β CD solution
  solubility at 24 h: 16.6 mg/mL
[4]; 10% HPαCD solution, aqueous with cosolvent or surfactant or cyclodextrin, 10% HP α CD solution
  solubility at 24 h: 25.7 mg/mL
[4]; 10% HPβCD solution, aqueous with cosolvent or surfactant or cyclodextrin, 10% HP β CD solution
  solubility at 24 h: 11.6 mg/mL
[4]; 10% HPγCD solution, aqueous with cosolvent or surfactant or cyclodextrin, 10% HP γ CD solution
  solubility at 24 h: 8.8 mg/mL
[4]; 10% SBEβCD solution, aqueous with cosolvent or surfactant or cyclodextrin, 10% SBE β CD solution
  solubility at 24 h: 8.9 mg/mL
[4]; 10% αCD solution, aqueous with cosolvent or surfactant or cyclodextrin, 10% α CD solution
  solubility at 24 h: 30.2 mg/mL
[4]; 10% βCD solution, aqueous with cosolvent or surfactant or cyclodextrin, 10% β CD solution
  solubility at 24 h: 5.9 mg/mL
[4]; 10% γCD solution, aqueous with cosolvent or surfactant or cyclodextrin, 10% γ CD solution
  solubility at 24 h: 14.4 mg/mL
[4]; aqueous with cosolvent or surfactant or cyclodextrin, 10% 2,3,6-Tri-O-methyl-β-cyclodextrin solution
  solubility at 24 h: 4.7 mg/mL
[4]; aqueous with cosolvent or surfactant or cyclodextrin, 10% 6-O-α-maltosyl-β-cyclodextrin solution
  solubility at 24 h: 10 mg/mL
[4]; aqueous with cosolvent or surfactant or cyclodextrin, 10% Hydroxyethyl-β-cyclodextrin solution
  solubility at 24 h: 11.9 mg/mL
[4]; aqueous with cosolvent or surfactant or cyclodextrin, 10% Methyl-β-cyclodextrin solution
  solubility at 24 h: 17.5 mg/mL
[4]; water, None (no CD or CD derivative)
  solubility at 24 h: 0.2 mg/mL
